Source: patent publication US9144239B2, “Macrocyclic picolinamides as fungicides” (DOW AGROSCIENCES LLC, priority 2012, dated 2015)

Columns and labels:
Format in all cases: in vivo
Cercospora beticola = assay: Fungicidal activity: leaf spot of sugar beets (CERCBE); conditions: 24 h, 1 Day Protectant, sugar beet, read-out: Disease Control CERCBE 1DP
Method: Technical grades of materials were dissolved in acetone, which were then mixed with nine volumes of water containing 110 ppm Triton X-100. The fungicide solutions were applied onto wheat seedlings using an automated booth sprayer to run-off. All sprayed plants were allowed to air dry prior to further handling. Wheat plants (variety Yuma) were grown from seed in a greenhouse in 50% mineral soil/50% soil-less Metro mix until the first leaf was fully emerged, with 7-10 seedlings per pot. These plants were inoculated with an aqueous spore suspension of Septoria tritici either prior to or after fungicide treatments. After inoculation the plants were kept in 100% relative humidity (one day in a dark dew chamber followed by two to three days in a lighted dew chamber at 20° C.) to permit spores to germinate and infect the leaf. The plants were then transferred to a greenhouse set at 20° C. for disease to develop. When disease symptoms were fully expressed on the 1st leaves of untreated plants, infection levels were assessed on a scale of 0 to 100 percent disease severity. Percent disease control was calculated using the ratio of disease severity on treated plants relative to untreated plants. Evaluation of Fungicidal Activity: Leaf Spot of Sugar Beets (Cercospora beticola; Bayer Code CERCBE) Sugar beet plants (variety HH88) were grown in soil-less Metro mix and trimmed regularly to maintain a uniform plant size prior to test. Plants were inoculated with a spore suspension 24 hr after fungicide treatments. Inoculated plants were kept in a dew chamber at 22° C. for 48 hr then incubated in a greenhouse set at 24° C. under a clear plastic hood with bottom ventilation until disease symptoms were fully expressed. Fungicide formulation, application and disease assessment on the sprayed leaves followed the procedures as described in the Example A.

[1] = system: Blumeria graminis f.sp. hordei; synonym: Erysiphe graminis f.sp. hordei; assay: Fungicidal activity: barley powdery mildew (ERYSGH); conditions: 24 h, 1 Day Protectant, read-out: Disease Control ERYSGH 1DP
Method: Technical grades of materials were dissolved in acetone, which were then mixed with nine volumes of water containing 110 ppm Triton X-100. The fungicide solutions were applied onto wheat seedlings using an automated booth sprayer to run-off. All sprayed plants were allowed to air dry prior to further handling. Wheat plants (variety Yuma) were grown from seed in a greenhouse in 50% mineral soil/50% soil-less Metro mix until the first leaf was fully emerged, with 7-10 seedlings per pot. These plants were inoculated with an aqueous spore suspension of Septoria tritici either prior to or after fungicide treatments. After inoculation the plants were kept in 100% relative humidity (one day in a dark dew chamber followed by two to three days in a lighted dew chamber at 20° C.) to permit spores to germinate and infect the leaf. The plants were then transferred to a greenhouse set at 20° C. for disease to develop. When disease symptoms were fully expressed on the 1st leaves of untreated plants, infection levels were assessed on a scale of 0 to 100 percent disease severity. Percent disease control was calculated using the ratio of disease severity on treated plants relative to untreated plants. Evaluation of Fungicidal Activity: Barley Powdery Mildew (Blumeria graminis f.sp. hordei; Synonym: Erysiphe graminis f.sp. hordei; Bayer Code […]) Barley seedlings (variety Harrington) were propagated in soil-less Metro mix, with each pot having 8 to 12 plants, and used in the test when first leaf was fully emerged. Test plants were inoculated by dusting with infected stock plants 24 hr after fungicide treatments. After inoculation the plants were kept in a greenhouse set at 20° C. for disease to develop. Fungicide formulation, application and disease assessment on the sprayed leaves followed the procedures as described in the Example A.

[2] = system: Blumeria graminis f.sp. tritici; synonym: Erysiphe graminis f.sp. tritici; assay: Fungicidal activity: wheat powdery mildew (ERYSGT); conditions: 24 h, 1 Day Protectant, read-out: Disease Control ERYSGT 1 DP
Method: Technical grades of materials were dissolved in acetone, which were then mixed with nine volumes of water containing 110 ppm Triton X-100. The fungicide solutions were applied onto wheat seedlings using an automated booth sprayer to run-off. All sprayed plants were allowed to air dry prior to further handling. Wheat plants (variety Yuma) were grown from seed in a greenhouse in 50% mineral soil/50% soil-less Metro mix until the first leaf was fully emerged, with 7-10 seedlings per pot. These plants were inoculated with an aqueous spore suspension of Septoria tritici either prior to or after fungicide treatments. After inoculation the plants were kept in 100% relative humidity (one day in a dark dew chamber followed by two to three days in a lighted dew chamber at 20° C.) to permit spores to germinate and infect the leaf. The plants were then transferred to a greenhouse set at 20° C. for disease to develop. When disease symptoms were fully expressed on the 1st leaves of untreated plants, infection levels were assessed on a scale of 0 to 100 percent disease severity. Percent disease control was calculated using the ratio of disease severity on treated plants relative to untreated plants. Evaluation of Fungicidal Activity: Wheat Powdery Mildew (Blumeria graminis f.sp. tritici; Synonym: Erysiphe graminis f.sp. tritici; Bayer Code […]) Wheat plants (variety Yuma) were grown from seed in a greenhouse in 50% mineral soil/50% soil-less Metro mix until the first leaf was fully emerged, with 7-10 seedlings per pot. These plants were inoculated by dusting with infected stock plants 24 hr after fungicide treatments. After inoculation the plants were kept in a greenhouse set at 20° C. for disease to develop. Fungicide formulation, application and disease assessment on the sprayed leaves followed the procedures as described in the Example A.

[3] = system: Magnaporthe grisea; anamorph: Pyricularia oryzae; assay: whole plant or invertebrate; conditions: 24 h, read-out: Disease Control PYRIOR 1 DP
[4] = system: Glomerella lagenarium; anamorph: Colletotrichum lagenarium; assay: Fungicidal activity: cucumber anthracnose (COLLLA); conditions: Colletotrichum orbiculare, 24 h, 1 Day Protectant, read-out: Disease Control COLLLA 1DP
Method: Technical grades of materials were dissolved in acetone, which were then mixed with nine volumes of water containing 110 ppm Triton X-100. The fungicide solutions were applied onto wheat seedlings using an automated booth sprayer to run-off. All sprayed plants were allowed to air dry prior to further handling. Wheat plants (variety Yuma) were grown from seed in a greenhouse in 50% mineral soil/50% soil-less Metro mix until the first leaf was fully emerged, with 7-10 seedlings per pot. These plants were inoculated with an aqueous spore suspension of Septoria tritici either prior to or after fungicide treatments. After inoculation the plants were kept in 100% relative humidity (one day in a dark dew chamber followed by two to three days in a lighted dew chamber at 20° C.) to permit spores to germinate and infect the leaf. The plants were then transferred to a greenhouse set at 20° C. for disease to develop. When disease symptoms were fully expressed on the 1st leaves of untreated plants, infection levels were assessed on a scale of 0 to 100 percent disease severity. Percent disease control was calculated using the ratio of disease severity on treated plants relative to untreated plants. Evaluation of Fungicidal Activity: Cucumber Anthracnose (Glomerella lagenarium; Anamorph: Colletotrichum lagenarium; Bayer Code COLLLA) Cucumber seedlings (variety Bush Pickle) were propagated in soil-less Metro mix, with each pot having one plant, and used in the test when 12 to 14 days old. Test plants were inoculated with an aqueous spore suspension of Colletotrichum lagenarium 24 hr after fungicide treatments. After inoculation the plants were kept in a dew room at 22° C. with 100% relative humidity for 48 hr to permit spores to germinate and infect the leaf. The plants were then transferred to a growth room set at 22° C. for disease to develop. Fungicide formulation, application and disease assessment on the sprayed leaves followed the procedures as described in the Example A.

| Structure (SMILES) | pest or weed control at 100 ppm (Cercospora beticola) | pest or weed control at 100 ppm [1] | pest or weed control at 100 ppm [2] | pest or weed control at 100 ppm [3] | pest or weed control at 100 ppm [4] |
| --- | --- | --- | --- | --- | --- |
| COc1ccnc(C(=O)N[C@H]2COC[C@H](OCC(C)C)[C@@H](OCC(C)C)[C@H](C)OC2=O)c1OCOC(=O)C(C)C [Compound 2] | 0 to 80% | 80 to 100% | – | – | – |
| COc1ccnc(C(=O)N[C@H]2COC[C@H](OCC(C)C)[C@@H](OCC(C)C)[C@H](C)OC2=O)c1OCOC(C)=O [Compound 3, (2-((3S,7S,8S,9S)-7,8-diisobutoxy-9-methyl-2-oxo-1,5-dioxonan-3-ylcarbamoyl)-4-methoxypyridin-3-yloxy)methyl] | 80 to 100% | 80 to 100% | 80 to 100% | 80 to 100% | 80 to 100% |
| COc1ccnc(C(=O)NC2COC[C@H](OCc3ccccc3)[C@@H](OCc3ccccc3)[C@H](C)OC2=O)c1OCOC(C)=O (some centres unmarked) [Compound 12] | 80 to 100% | 0 to 80% | 0 to 80% | 80 to 100% | 80 to 100% |
| CCCCO[C@H]1COC[C@H](NC(=O)c2nccc(OC)c2OCOC(C)=O)C(=O)O[C@@H](C)[C@@H]1OCCOC [Compound 54] | 0 to 80% | 0 to 80% | 0 to 80% | 0 to 80% | 80 to 100% |
| CCCCO[C@H]1COC[C@H](NC(=O)c2nccc(OC)c2OCOC(C)=O)C(=O)O[C@@H](C)[C@@H]1OCC(F)F [Compound 55] | 80 to 100% | – | 0 to 80% | 80 to 100% | 80 to 100% |
| COc1ccnc(C(=O)N[C@H]2COC[C@H](OC(=O)C(C)C)[C@@H](OC(=O)C(C)C)[C@H](C)OC2=O)c1OCOC(C)=O [Compound 57] | 80 to 100% | 0 to 80% | 0 to 80% | 80 to 100% | 80 to 100% |
| COc1ccnc(C(=O)N[C@H]2COC[C@H](OCCCc3ccccc3)[C@@H](OCCCc3ccccc3)[C@H](C)OC2=O)c1OCOC(C)=O [Compound 60] | 80 to 100% | – | 0 to 80% | 80 to 100% | 80 to 100% |
| COc1ccnc(C(=O)N[C@H]2COC[C@H](OC)[C@@H](OC)[C@H](C)OC2=O)c1OCOC(C)=O [Compound 65] | 0 to 80% | – | – | – | 0 to 80% |
| COc1ccnc(C(=O)N[C@H]2COC[C@H](OCCCC(F)(F)F)[C@@H](OCCCC(F)(F)F)[C@H](C)OC2=O)c1OCOC(C)=O [Compound 68] | 80 to 100% | 0 to 80% | 0 to 80% | 80 to 100% | 80 to 100% |
| COc1ccnc(C(=O)N[C@H]2COC[C@H](OCC(C)C)[C@@H](OC3CCCCC3)[C@H](C)OC2=O)c1OCOC(C)=O [Compound 77] | 80 to 100% | 0 to 80% | 0 to 80% | 80 to 100% | 80 to 100% |
| CCC(C)(C)O[C@H]1COC[C@H](NC(=O)c2nccc(OC)c2OCOC(C)=O)C(=O)O[C@@H](C)[C@@H]1OCC(C)C [Compound 78] | 0 to 80% | 0 to 80% | 80 to 100% | 80 to 100% | 80 to 100% |
| COc1ccnc(C(=O)N[C@H]2COC[C@H](Oc3ccccc3)[C@@H](Oc3ccccc3)[C@H](C)OC2=O)c1OCOC(C)=O [Compound 84] | 80 to 100% | 0 to 80% | 0 to 80% | 80 to 100% | 80 to 100% |
| COc1ccnc(C(=O)N[C@H]2COC[C@H](OCC(C)C)[C@@H](Oc3ccccc3)[C@H](C)OC2=O)c1OCOC(C)=O [Compound 85] | 80 to 100% | 0 to 80% | 0 to 80% | 80 to 100% | 80 to 100% |
| CCCO[C@H]1COC[C@H](NC(=O)c2nccc(OC)c2OCOC(C)=O)C(=O)O[C@@H](C)[C@@H]1Oc1ccccc1 [Compound 221] | 80 to 100% | – | – | 80 to 100% | 80 to 100% |
| CCCO[C@H]1[C@H](C)OC(=O)[C@@H](NC(=O)c2nccc(OC)c2OCOC(C)=O)COC[C@@H]1Oc1ccccc1 [Compound 222] | 80 to 100% | – | – | 80 to 100% | 80 to 100% |
| COc1ccnc(C(=O)N[C@H]2COC[C@H](Oc3ccc(F)cc3)[C@@H](Oc3ccc(F)cc3)[C@H](C)OC2=O)c1OC(C)=O [Compound 229, 2-(((3S,7S,8S,9S)-7,8-bis(4-fluorophenoxy)-9-methyl-2-oxo-1,5-dioxonan-3-yl)carbamoyl)-4-methoxypyridin-3-yl acetate] | 80 to 100% | 0 to 80% | – | 80 to 100% | 80 to 100% |
| COc1ccnc(C(=O)N[C@H]2COC[C@H](Oc3ccc(F)cc3)[C@@H](Oc3ccc(F)cc3)[C@H](C)OC2=O)c1OCOC(C)=O [Compound 231] | 0 to 80% | 0 to 80% | – | 80 to 100% | 80 to 100% |
